The text below walks through data of patent US20090305993A1, “METHODS AND COMPOSITION FOR THE TREATMENT OF GASTROINTESTINAL DISORDERS” (IRONWOOD PHARMACEUTICALS, INC., priority 2006, published 2009).

pKi: −log10 of the molar value. Where two headings read alike, the source gives them in different places. Where a SMILES comes first, the peptide text is derived from it. Bridges are numbered along the chain shown (N, C = ends).

For assay [1], the target named is T1, GC-C receptors on the cell surface of human colonic cells (T84 cells) (Homo sapiens, UniProt P25092).
T1 construct: host or cells: T84 cells (whole cells in suspension)
In words: competitive radioligand-binding assay on T84 cells. The procedure:
The radiolabeled tracer used in these experiments was ^125I-SEQ ID NO:7. To determine binding constants, competitive inhibition of binding was used. T84 cells were cultured in T-150 plastic flasks in DMEM and Ham's F-12 medium containing 5% fetal bovine serum. Monolayers at 60-70% confluency (approximately 10^7 cells) were collected by gentle scraping followed by centrifugation, and washed twice in 50 mL of phosphate-buffered saline (PBS). The cells were resuspended in 1 mL DMEM containing 20 mM […] (Hepes), pH 7.0 and 0.5% bovine serum albumin (BSA). T84 cells were incubated with a constant amount of ^125I-SEQ ID NO:7 containing various concentrations of cold competitor. Free ^125I-SEQ ID NO:7 was separated from bound tracer by rapid suction filtration. The binding reactions were carried out in 1.5 mL microfuge tubes in 0.24 mL of DMEM/20 mM Hepes pH 7.0/0.5% BSA containing: 2.5×10^5 T84 cells (0.25 mg protein), 200,000 cpm ^125I-SEQ ID NO:7 (41 fmol, […]), and 0.01 to 1,000 nM competitor. Binding assays at pH 5.0 were done in DMEM/20 mM 2-(N-morpholino) ethanesulfonic acid (Mes), pH 5.0. Binding assays in pH 8.0 were done in DMEM/20 mM Hepes/50 mM sodium bicarbonate pH 8.0. One sample contained no competitor (B0) and another contained no cells. After incubation at 37° C. for 1 h, the reaction mixtures were applied to Whatman GF/B glass-fiber filters by suction filtration. The filters were then rinsed with 10 mL ice-cold PBS buffer, inserted into plastic tubes, and added to 2 mL scintillation fluid. Radioactivity was measured in a LS 6500 liquid scintillation counter (Beckman-Coulter). The percent bound in each sample is calculated by the equation:
% B/B0=(sample cpm−no cells cpm)×100/(B0 cpm−no cells cpm)
Competitive radioligand-binding curves were generated using the Graphpad PRISM™ computer program. […] The apparent dissociation equilibrium constant (Ki) for each competitor was obtained from the IC50 values and the previously reported estimate of the dissociation constant for the radioligand, Kd≈15 nM (Hamra et al. 1997 PNAS 2705-10) and the method of Cheng and Prusoff 1973 Biochem Pharmacol 22:3099-108. Using a two site model, high and low affinity-binding sites were identified on T84 cells (Ki1 and Ki2) for all the test agents. At pH 7.0. for SEQ ID NO:3 Ki1 ranged from 0.89-1.23 nM and Ki2 ranged from 88.9-156 nM.

The subject of assay [2] is Female CD rats. The assay is described as follows: rat model of postoperative ileus. The format is in vivo. The conditions noted are these: oral 10 μg/kg, after abdominal surgery, FIG. 16. The procedure: Female CD rats were used to test the effect of SEQ ID NO:3 on delayed transit induced by abdominal surgery and manual manipulation of the small intestine. Groups of at least nine rats underwent abdominal surgery under isoflurane anesthesia. Surgery consisted of laparotomy and 5 minutes of gentle manual intestinal massage. Following recovery from anesthesia, rats were dosed orally with either 10 μg/kg SEQ ID NO:3 or vehicle (20 mM Tris) in a volume of 300 μl. 1 hour after dosing, intestinal transit rate was measured. Animals were again dosed with 300 μl of the test article followed immediately by 500 μl of a charcoal meal (10% charcoal, 10% gum arabic in water). To calculate the distance of the small intestine traveled by the charcoal front, after 20 minutes, the total length of the intestine as well as the distance traveled from the stomach to the charcoal front were measured for each animal. Animals dosed with 10 μg/kg SEQ ID NO:3 experienced an increase in transit following abdominal surgery compared to animals dosed with vehicle alone (FIG. 16). Charcoal transit in SEQ ID NO:3 dosed animals was measured at 37.3+3.0% (mean+SEM) of the small intestine compared with vehicle at 24.7+1.4% (mean+SEM) of the small intestine.

T1 sequence (P25092 24-1073): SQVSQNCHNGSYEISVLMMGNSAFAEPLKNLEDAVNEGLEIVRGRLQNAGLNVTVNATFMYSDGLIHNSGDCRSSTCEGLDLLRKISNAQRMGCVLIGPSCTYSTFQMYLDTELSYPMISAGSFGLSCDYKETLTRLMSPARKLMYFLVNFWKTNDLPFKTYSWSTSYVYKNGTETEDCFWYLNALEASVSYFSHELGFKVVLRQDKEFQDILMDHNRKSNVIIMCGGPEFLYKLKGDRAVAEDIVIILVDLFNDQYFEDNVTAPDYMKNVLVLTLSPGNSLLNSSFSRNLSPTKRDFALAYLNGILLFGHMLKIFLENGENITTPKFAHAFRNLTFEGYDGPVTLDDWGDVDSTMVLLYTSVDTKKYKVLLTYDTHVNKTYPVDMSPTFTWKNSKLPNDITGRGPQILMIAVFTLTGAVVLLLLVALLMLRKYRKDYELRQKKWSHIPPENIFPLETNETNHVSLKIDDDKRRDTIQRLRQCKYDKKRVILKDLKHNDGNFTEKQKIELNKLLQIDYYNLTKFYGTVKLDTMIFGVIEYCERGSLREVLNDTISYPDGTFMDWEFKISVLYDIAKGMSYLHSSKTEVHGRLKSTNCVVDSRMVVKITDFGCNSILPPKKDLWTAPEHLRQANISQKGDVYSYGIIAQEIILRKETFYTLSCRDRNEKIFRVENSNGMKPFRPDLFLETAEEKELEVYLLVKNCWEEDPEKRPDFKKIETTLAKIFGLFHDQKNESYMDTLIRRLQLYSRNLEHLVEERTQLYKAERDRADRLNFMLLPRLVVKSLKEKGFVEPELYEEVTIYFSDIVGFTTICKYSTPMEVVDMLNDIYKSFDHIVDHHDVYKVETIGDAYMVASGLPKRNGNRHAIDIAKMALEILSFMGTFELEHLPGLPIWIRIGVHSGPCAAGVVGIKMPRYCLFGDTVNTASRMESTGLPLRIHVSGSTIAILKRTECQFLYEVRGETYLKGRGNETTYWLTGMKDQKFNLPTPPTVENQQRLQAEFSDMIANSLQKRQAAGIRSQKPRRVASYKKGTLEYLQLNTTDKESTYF

For the molecule `C[C@@H]1NC(=O)[C@@H]2CCCN2C(=O)[C@H](CC(N)=O)NC(=O)[C@@H]2CSSC[C@H](N)C(=O)N[C@H]3CSSC[C@H](NC1=O)C(=O)N[C@@H]([C@@H](C)O)C(=O)NCC(=O)N[C@H](C(=O)N[C@@H](Cc1ccc(O)cc1)C(=O)O)CSSC[C@H](NC(=O)[C@H](Cc1ccc(O)cc1)NC(=O)[C@H](CCC(=O)O)NC3=O)C(=O)N2` [SEQ ID NO:3] (H-CCEYCCNPACTGCY-OH; disulfide 1-6, 2-10, 5-13; N-terminus and C-terminus assumed), in assay [1] (pH 5, 7 and 8), the “effect of pH on binding to the high affinity site, Ki1” value is given as “not affected by pH”. Moreover, the pKi in assay [1] (pH 5.0, T84 cells, read-out: Ki1 (high affinity site)) was 8.86; in assay [1] (pH 5.0, T84 cells, read-out: Ki2 (low affinity site)) it was 7.77; in assay [1] (pH 8.0, T84 cells, read-out: Ki1 (high affinity site)), 9.22; in assay [1] (pH 8.0, T84 cells, read-out: Ki2 (low affinity site)), 7.03. Besides, the “Charcoal transit, of the small intestine (mean+SEM)” value in assay [2] is listed as 37.3+3.0%.
